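A five-concentration, 48-hour dose response in 96-well plates underlies each endpoint, interpolated linearly between surrounding concentrations. GI50 marks 50% less growth.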 The source made the active and inactive calls. Cut-off read from the data, not from the text of the source: active = GI50 up to about 1.1 µM and inactive = higher.
Tests used:
Experiment in all cases: NCI anticancer screen, dose series, 48 h
A498 = tested on: A498
BT-549 = tested on: BT-549
COLO 205 = tested on: COLO 205
DU-145 = tested on: DU-145
MDA-MB-231 = tested on: MDA-MB-231
Malme-3M = tested on: Malme-3M
NCI-H23 = tested on: NCI-H23
NCI/ADR-RES = tested on: NCI/ADR-RES
OVCAR-3 = tested on: OVCAR-3
OVCAR-5 = tested on: OVCAR-5
PC-3 = tested on: PC-3
SK-MEL-2 = tested on: SK-MEL-2
SNB-19 = tested on: SNB-19
T47D = tested on: T47D
UACC-257 = tested on: UACC-257
UACC-62 = tested on: UACC-62
UO-31 = tested on: UO-31
HL-60 = tested on: HL-60
IGROV-1 = tested on: IGROV-1
LOX IMVI = tested on: LOX IMVI

Measured: GI50

N#CCC(=O)c1cc(OCc2cc(OCc3ccc(Br)cc3)cc(OCc3ccc(Br)cc3)c2)cc(OCc2cc(OCc3ccc(Br)cc3)cc(OCc3ccc(Br)cc3)c2)c1
inactive: A498 > 100 µM | BT-549 > 100 µM | COLO 205 > 100 µM | DU-145 > 100 µM | MDA-MB-231 > 100 µM | Malme-3M > 100 µM | NCI-H23 > 100 µM | NCI/ADR-RES > 100 µM | OVCAR-3 > 100 µM | OVCAR-5 > 100 µM | PC-3 > 100 µM | SK-MEL-2 > 100 µM | SNB-19 > 100 µM | T47D > 100 µM | UACC-257 > 100 µM | UACC-62 > 100 µM | UO-31 > 100 µM

O=C1N=C2SC=C(NC(=S)Nc3ccccc3)N2NC12c1ccccc1-c1ccccc12
inactive: BT-549 > 10 µM | COLO 205 > 10 µM | DU-145 > 10 µM | HL-60 > 10 µM | IGROV-1 > 10 µM | LOX IMVI > 10 µM | MDA-MB-231 > 10 µM | Malme-3M > 10 µM | NCI-H23 > 10 µM | NCI/ADR-RES > 10 µM | OVCAR-5 > 10 µM | PC-3 > 10 µM | SNB-19 > 10 µM | T47D 5.7 µM | UACC-257 > 10 µM | UACC-62 > 10 µM | UO-31 8.67 µM

COc1ccc(OC)c2cc(Cc3ccc(N(C)C)cc3)c(=O)c(Cc3ccc(N(C)C)cc3)cc12
inactive: A498 26.4 µM | BT-549 > 100 µM | COLO 205 > 100 µM | DU-145 > 100 µM | IGROV-1 45.7 µM | MDA-MB-231 74.5 µM | Malme-3M > 100 µM | NCI-H23 > 100 µM | NCI/ADR-RES 30.2 µM | OVCAR-3 > 100 µM | OVCAR-5 > 100 µM | PC-3 62.1 µM | SNB-19 75.5 µM | T47D 76.9 µM | UACC-257 > 100 µM | UACC-62 59.4 µM | UO-31 > 100 µM

CC(C(N)C(=O)NC(C(=O)O)C1OC(n2ccc(=O)[nH]c2=O)C(O)C1O)C(O)c1ccc(O)cn1 (stereo not given)
inactive: BT-549 > 100 µM | COLO 205 > 100 µM | DU-145 > 100 µM | HL-60 > 100 µM | IGROV-1 > 100 µM | LOX IMVI > 100 µM | MDA-MB-231 > 100 µM | NCI-H23 > 100 µM | NCI/ADR-RES > 100 µM | OVCAR-3 > 100 µM | OVCAR-5 > 100 µM | PC-3 > 100 µM | SK-MEL-2 > 100 µM | SNB-19 > 100 µM | T47D > 100 µM | UACC-257 > 100 µM | UACC-62 > 100 µM | UO-31 > 100 µM

N#CC(/N=N/c1ccccc1C(=O)O)C(N)=O (stereo not given)
inactive: BT-549 > 100 µM | DU-145 > 100 µM | HL-60 > 100 µM | MDA-MB-231 > 100 µM | Malme-3M 91.2 µM | NCI-H23 > 100 µM | NCI/ADR-RES 39.8 µM | OVCAR-3 > 100 µM | OVCAR-5 > 100 µM | PC-3 > 100 µM | SK-MEL-2 > 100 µM | SNB-19 > 100 µM | T47D > 100 µM | UACC-257 > 100 µM | UACC-62 > 100 µM | UO-31 > 100 µM

COC(=O)[C@]1(NC(=O)c2ccccc2)C[C@H]1C=O
inactive: A498 > 71.8 µM | BT-549 98.2 µM | COLO 205 > 100 µM | DU-145 > 100 µM | IGROV-1 > 100 µM | LOX IMVI 98.6 µM | MDA-MB-231 > 100 µM | Malme-3M > 100 µM | NCI-H23 > 100 µM | NCI/ADR-RES > 58.6 µM | OVCAR-3 > 100 µM | OVCAR-5 > 100 µM | PC-3 > 100 µM | SK-MEL-2 > 100 µM | SNB-19 > 100 µM | T47D > 100 µM | UACC-257 > 100 µM | UACC-62 > 64.7 µM | UO-31 > 100 µM

CCOC(=O)C#Cc1ccc([N+](=O)[O-])cc1
active: OVCAR-5 1 µM
inactive: A498 17.5 µM | BT-549 2.18 µM | COLO 205 1.72 µM | DU-145 1.74 µM | HL-60 1.73 µM | IGROV-1 1.96 µM | LOX IMVI 1.34 µM | MDA-MB-231 2.28 µM | NCI-H23 2.59 µM | NCI/ADR-RES 4.18 µM | OVCAR-3 1.71 µM | PC-3 2.72 µM | SK-MEL-2 3.24 µM | SNB-19 13 µM | T47D 2.01 µM | UACC-257 3.32 µM | UACC-62 1.98 µM | UO-31 1.77 µM

CCOC(=O)/C=C(/C(=O)OCC)n1ccc(=O)n(Cc2cn(COCCOC(C)=O)nn2)c1=O
inactive: A498 20.5 µM | BT-549 16.4 µM | COLO 205 4.91 µM | DU-145 40.2 µM | IGROV-1 18 µM | LOX IMVI 20.9 µM | MDA-MB-231 28.8 µM | NCI-H23 20.7 µM | NCI/ADR-RES 20.3 µM | OVCAR-3 17.8 µM | OVCAR-5 20.1 µM | PC-3 35.4 µM | SK-MEL-2 25.2 µM | SNB-19 70.5 µM | T47D 32.1 µM | UACC-257 19.3 µM | UACC-62 18.3 µM | UO-31 18 µM

O=C1c2cc([N+](=O)[O-])ccc2NC2C(O)c3ccccc3N12 (stereo not given)
inactive: A498 18.3 µM | BT-549 22.8 µM | COLO 205 61.8 µM | DU-145 9.55 µM | IGROV-1 24.9 µM | LOX IMVI 43.8 µM | MDA-MB-231 31.6 µM | NCI-H23 24.3 µM | NCI/ADR-RES 23.5 µM | OVCAR-3 20.4 µM | OVCAR-5 > 100 µM | PC-3 53 µM | SK-MEL-2 33.3 µM | SNB-19 29 µM | T47D 14.2 µM | UACC-257 16 µM | UACC-62 3.45 µM | UO-31 25.9 µM

Cc1cc(OP2(=O)NCc3ncccc3O2)ccc1Cl (stereo not given)
inactive: A498 > 100 µM | BT-549 > 100 µM | COLO 205 > 100 µM | DU-145 > 100 µM | IGROV-1 > 100 µM | LOX IMVI > 100 µM | MDA-MB-231 > 100 µM | NCI-H23 > 100 µM | NCI/ADR-RES > 100 µM | OVCAR-3 > 100 µM | OVCAR-5 > 100 µM | PC-3 > 100 µM | SK-MEL-2 > 100 µM | SNB-19 > 100 µM | T47D > 100 µM | UACC-257 > 100 µM | UACC-62 > 100 µM | UO-31 > 100 µM

COc1cc(/C=C2\N=C(c3ccccc3)N(c3nc4cc(C)c(C)cc4s3)C2=O)cc(OC)c1OC
inactive: BT-549 26.8 µM | COLO 205 27.5 µM | DU-145 45.4 µM | HL-60 17.8 µM | IGROV-1 15.9 µM | LOX IMVI 22.4 µM | MDA-MB-231 43.6 µM | NCI/ADR-RES 28.1 µM | OVCAR-3 20 µM | OVCAR-5 27.2 µM | PC-3 23.9 µM | SK-MEL-2 32 µM | SNB-19 36 µM | T47D 40.9 µM | UACC-257 28.9 µM | UACC-62 33.3 µM | UO-31 24.7 µM

O=c1[nH][nH]c(=O)n1/N=C/c1ccccc1
inactive: A498 > 100 µM | BT-549 > 100 µM | COLO 205 > 100 µM | DU-145 > 100 µM | HL-60 > 100 µM | IGROV-1 > 100 µM | LOX IMVI > 100 µM | MDA-MB-231 > 100 µM | NCI-H23 > 100 µM | NCI/ADR-RES > 100 µM | OVCAR-3 > 100 µM | OVCAR-5 > 100 µM | PC-3 > 100 µM | SK-MEL-2 > 100 µM | SNB-19 > 100 µM | T47D > 100 µM | UACC-257 > 100 µM | UACC-62 > 100 µM | UO-31 > 100 µM

CN(C)c1ccc(/C=N/NC(=S)Nc2ccccc2)cc1
inactive: A498 > 100 µM | BT-549 > 100 µM | COLO 205 > 100 µM | DU-145 > 100 µM | IGROV-1 > 100 µM | LOX IMVI > 100 µM | MDA-MB-231 > 100 µM | Malme-3M > 100 µM | NCI-H23 > 100 µM | NCI/ADR-RES > 100 µM | OVCAR-3 > 100 µM | OVCAR-5 > 100 µM | PC-3 > 100 µM | SK-MEL-2 > 100 µM | SNB-19 > 100 µM | T47D > 100 µM | UACC-257 > 100 µM | UACC-62 > 100 µM | UO-31 > 100 µM

CCCCCCCCCCCC[C@@H](O)[C@H]1CC[C@H]([C@H]2CC[C@H]([C@H](O)CC[C@H](O)CCCCCCCC3=C[C@H](C)OC3=O)O2)O1
active: BT-549 0.00352 µM | NCI-H23 0.0201 µM | UACC-257 0.136 µM | UACC-62 1.02 µM | UO-31 0.562 µM
inactive: A498 2.52 µM | COLO 205 1.86 µM | DU-145 3.38 µM | HL-60 1.26 µM | IGROV-1 1.65 µM | LOX IMVI 1.17 µM | MDA-MB-231 2.62 µM | NCI/ADR-RES 1.29 µM | OVCAR-3 1.58 µM | OVCAR-5 1.69 µM | PC-3 1.55 µM | SK-MEL-2 1.52 µM | SNB-19 1.23 µM | T47D 3.4 µM

NCC(O)CSCc1ccc(Cl)cc1 (stereo not given)
inactive: A498 > 100 µM | BT-549 > 100 µM | COLO 205 > 100 µM | DU-145 > 100 µM | HL-60 > 100 µM | IGROV-1 > 100 µM | LOX IMVI > 100 µM | MDA-MB-231 > 100 µM | Malme-3M > 100 µM | NCI-H23 > 100 µM | NCI/ADR-RES > 100 µM | OVCAR-3 > 100 µM | OVCAR-5 > 100 µM | PC-3 > 100 µM | SNB-19 > 100 µM | T47D > 100 µM | UACC-257 > 100 µM | UACC-62 > 100 µM | UO-31 > 100 µM
